Test results: patent publication US20230146455A1, “TREATMENT OF INFLAMMATORY DISEASES WITH PEPTIDES AND PHARMACEUTICAL COMPOSITIONS” (Yuyu Pharma, Inc., priority 2020, published 2023)
Where “and” joins values, the source holds several entries; their conditions need not be identical. Equal values may be shown once. Where a SMILES comes first, the peptide text is derived from it. [ ]: non-standard residue; d: D form. Hyp = O=C(O)[C@@H]1C[C@@H](O)CN1

Tested on: TNF-alpha
Assay: Example 9 Luminex, LPS hPBMCs: TNF-alpha
Assay type: cell-based, human
Procedure: Treatment Human PBMCs were pretreated with YY-101, YDE-011 and YDE-043 or reference compound; Xiidra® at various concentration (ranging from 1 nM to 100 uM) for 2 h before stimulation. An equal volume of 0.5% DMSO was used as a vehicle control. Then, the cells were treated with LPS at 5 ug/ml. The supernatants from treated cells were harvested at 24 h and placed in a 96 well for Luminex cytokine & chemokine profiling using a Luminex 200 multiplex assay (Luminex; R&D system, USA).
The main study arm with triplicate wells per group in a 24-well plate: • 1. Blank • 2. PBMC: 0.5% DMSO • 3. PBMC+LPS (5 ug/ml) • 4. PBMC+YY-101 100 uM • 5. PBMC+YY-101 10 uM • 6. PBMC+YY-101 1 uM • 7. PBMC+YY-101 0.1 uM • 8. PBMC+YY-101 0.01 uM • 9. PBMC+LPS (5 ug/ml)+Xiidra®100 uM • 10. PBMC+LPS (5 ug/ml)+Xiidra® 10 uM • 11. PBMC+LPS (5 ug/ml)+Xiidra® 1 uM • 12. PBMC+LPS (5 ug/ml)+Xiidra®0.1 uM • 13. PBMC+LPS (5 ug/ml)+Xiidra®0.01 uM • 14. PBMC+LPS (5 ug/ml)+Xiidra®0.001 uM • 15. PBMC+LPS (5 ug/ml)+YY-101 100 uM • 16. PBMC+LPS (5 ug/ml)+YY-101 10 uM • 17. PBMC+LPS (5 ug/ml)+YY-101 1 uM • 18. PBMC+LPS (5 ug/ml)+YY-101 0.1 uM • 19. PBMC+LPS (5 ug/ml)+YY-101 0.01 uM • 20. PBMC+LPS (5 ug/ml)+YY-101 0.001 uM • 21. PBMC+LPS (5 ug/ml)+YDE-011 100 uM • 22. PBMC+LPS (5 ug/ml)+YDE-011 10 uM • 23. PBMC+LPS (5 ug/ml)+YDE-011 1 uM • 24. PBMC+LPS (5 ug/ml)+YDE-011 0.1 uM • 25. PBMC+LPS (5 ug/ml)+YDE-011 0.01 uM • 26. PBMC+LPS (5 ug/ml)+YDE-011 0.001 uM • 27. PBMC+LPS (5 ug/ml)+YDE-043 100 uM • 28. PBMC+LPS (5 ug/ml)+YDE-043 10 uM • 29. PBMC+LPS (5 ug/ml)+YDE-043 1 uM • 30. PBMC+LPS (5 ug/ml)+YDE-043 0.1 uM • 31. PBMC+LPS (5 ug/ml)+YDE-043 0.01 uM • 32. PBMC+LPS (5 ug/ml)+YDE-043 0.001 uM
Multiplex assay was used to measure 30 cytokines and chemokines. The 1:2, 1:10 and 1:200 diluted cell supernatant and serial dilution of the standard were dispensed into a 96 well plate at 50 ul/well. Then, the pre-mixed cocktail of antibody-coated magnetic beads was dispensed at 50 ul/well and incubated at room temperature for 2 h in a horizontal orbital microplate shaker at 800±500 rpm. The beads were washed using a magnetic device to prevent loss. The biotin-antibody was dispensed in 50 ul of each well and incubated at room temperature for 1 h in a shaker at 800±500 rpm. After washing, streptavidin-PE was added at 50 ul/well and incubated at room temperature for 30 min in a shaker under the same conditions. Finally, after washing, wash buffer (100 ul/well) was added to the plate and incubated in a shaker for 2 min. The Luminex™ 200 setting were set according to the manufacturer's protocol. The data was calculated with a standard five-parameter logistic nonlinear regression analysis of the data (xPonent software 4.2, USA). The levels of cytokine/chemokine are normalized to the live cell counts (1×10^5 cells/mL) and presented as concentrations per mL (pg/mL or ng/mL).

[1] = PBMC + LPS(5 ug/ml) + test article 0.001 uM, Mean
[2] = PBMC + LPS(5 ug/ml) + test article 0.001 uM, individual replicates (1st, 2nd, 3rd)
[3] = PBMC + LPS(5 ug/ml) + test article 0.01 uM, Mean
[4] = PBMC + LPS(5 ug/ml) + test article 0.01 uM, individual replicates (1st, 2nd, 3rd)
[5] = PBMC + LPS(5 ug/ml) + test article 0.1 uM, Mean
[6] = PBMC + LPS(5 ug/ml) + test article 0.1 uM, individual replicates (1st, 2nd, 3rd)
[7] = PBMC + LPS(5 ug/ml) + test article 1 uM, Mean
[8] = PBMC + LPS(5 ug/ml) + test article 1 uM, individual replicates (1st, 2nd, 3rd)
[9] = PBMC + LPS(5 ug/ml) + test article 10 uM, Mean
[10] = PBMC + LPS(5 ug/ml) + test article 10 uM, individual replicates (1st, 2nd, 3rd)
[11] = PBMC + LPS(5 ug/ml) + test article 100 uM, Mean
[12] = PBMC + LPS(5 ug/ml) + test article 100 uM, individual replicates (1st, 2nd, 3rd)
[13] = PBMC + test article 0.01 uM, no LPS, Mean
[14] = PBMC + test article 0.01 uM, no LPS, individual replicates (1st, 2nd)
[15] = PBMC + test article 0.1 uM, no LPS, Mean
[16] = PBMC + test article 0.1 uM, no LPS, individual replicates (1st, 2nd)
[17] = PBMC + test article 1 uM, no LPS, Mean
[18] = PBMC + test article 1 uM, no LPS, individual replicates (1st, 2nd)
[19] = PBMC + test article 10 uM, no LPS, Mean
[20] = PBMC + test article 10 uM, no LPS, individual replicates (1st, 2nd)
[21] = PBMC + test article 100 uM, no LPS, Mean
[22] = PBMC + test article 100 uM, no LPS, individual replicates (1st, 2nd)

`CC(C)C[C@H](NC(=O)CNC(=O)[C@H](CC(C)C)NC(=O)[C@H](CCC(N)=O)NC(=O)CNC(=O)[C@@H]1C[C@@H](O)CN1)C(=O)N[C@@H](C)C(=O)NCC(=O)N1CCC[C@H]1C(=O)N[C@@H](CCCCN)C(=O)O` [YDE-011] (H-[Hyp]GQLGLAGPK-OH) was tested, and the “TNF-alpha Concentration” value [1] was 1257.3 pg/mL, the TNF-alpha conc/live cell [1] was 237.4 pg/10^5 and the “TNF-alpha Concentration” value [2] was 1245.3 pg/mL and 1240.9 pg/mL and 1285.6 pg/mL. For the same molecule, the TNF-alpha conc/live cell [2] was 276.7 pg/10^5 and 213.9 pg/10^5 and 221.7 pg/10^5, the “TNF-alpha Concentration” value [3] was 1293.5 pg/mL and the TNF-alpha conc/live cell [3] was 222.4 pg/10^5. The “TNF-alpha Concentration” value [4] was 1285.6 pg/ml (2×) and 1309.5 pg/ml, the TNF-alpha conc/live cell [4] was 207.4 pg/10^5 and 252.1 pg/10^5 and 207.9 pg/10^5 and the “TNF-alpha Concentration” value [5] was 1269.7 pg/mL. For the same molecule, the TNF-alpha conc/live cell [5] was 223.0 pg/10^5, the “TNF-alpha Concentration” value [6] was 1273.7 pg/mL and 1276.6 pg/mL and 1258.7 pg/mL and the TNF-alpha conc/live cell [6] was 193.0 pg/10^5 and 255.3 pg/10^5 and 220.8 pg/10^5. For the same molecule, the “TNF-alpha Concentration” value [7] was 1256.8 pg/mL, the TNF-alpha conc/live cell [7] was 250.5 pg/10^5 and the “TNF-alpha Concentration” value [8] was 1282.6 pg/mL and 1208.1 pg/mL and 1279.6 pg/mL. The TNF-alpha conc/live cell [8] was 233.2 pg/10^5 and 251.7 pg/10^5 and 266.6 pg/10^5, the “TNF-alpha Concentration” value [9] was 1330.4 pg/mL and the TNF-alpha conc/live cell [9] was 253.3 pg/10^5. The “TNF-alpha Concentration” value [10] was 1399.2 pg/mL and 1255.8 pg/mL and 1336.4 pg/mL, the TNF-alpha conc/live cell [10] was 259.1 pg/10^5 and 216.5 pg/10^5 and 284.3 pg/10^5 and the “TNF-alpha Concentration” value [11] was 968.4 pg/mL. For the same molecule, the TNF-alpha conc/live cell [11] was 159.6 pg/10^5, the “TNF-alpha Concentration” value [12] was 985.6 pg/mL and 960.5 pg/mL and 959.0 pg/mL and the TNF-alpha conc/live cell [12] was 161.6 pg/10^5 and 157.5 pg/10^5 and 159.8 pg/10^5.
With `CC(C)C[C@H](NC(=O)CNC(=O)[C@H](CC(=O)O)NC(=O)[C@H](CCC(N)=O)NC(=O)CNC(=O)[C@@H]1C[C@@H](O)CN1)C(=O)N[C@@H](C)C(=O)NCC(=O)N1CCC[C@H]1C(=O)N[C@@H](CCCCN)C(=O)O` [YY-101] (H-[Hyp]GQDGLAGPK-OH; N-terminus and C-terminus assumed) the “LPS-induced TNF-alpha (in words)” value (LPS 5 ug/mL 24 hrs, at as low as 1 nM) was “significantly reduced”, the “TNF-alpha Concentration” value [1] was 2433.4 pg/mL and the TNF-alpha conc/live cell [1] was 379.7 pg/10^5. For the same molecule, the “TNF-alpha Concentration” value [2] was 2537.1 pg/mL and 2609.2 pg/mL and 2154.0 pg/mL, the TNF-alpha conc/live cell [2] was 445.1 pg/10^5 and 367.5 pg/10^5 and 326.4 pg/10^5 and the “TNF-alpha Concentration” value [3] was 2746.9 pg/mL. For the same molecule, the TNF-alpha conc/live cell [3] was 445.6 pg/10^5, the “TNF-alpha Concentration” value [4] was 2819.6 pg/mL and 2784.2 pg/mL and 2636.8 pg/mL and the TNF-alpha conc/live cell [4] was 440.6 pg/10^5 and 464.0 pg/10^5 and 432.3 pg/10^5. The “TNF-alpha Concentration” value [5] was 2852.4 pg/mL, the TNF-alpha conc/live cell [5] was 489.7 pg/10^5 and the “TNF-alpha Concentration” value [6] was 2791.9 pg/mL and 2870.4 pg/mL and 2895.0 pg/mL. For the same molecule, the TNF-alpha conc/live cell [6] was 450.3 pg/10^5 and 552.0 pg/10^5 and 466.9 pg/10^5, the “TNF-alpha Concentration” value [7] was 2552.6 pg/mL and the TNF-alpha conc/live cell [7] was 392.3 pg/10^5. The “TNF-alpha Concentration” value [8] was 2738.1 pg/mL and 2506.5 pg/mL and 2413.2 pg/mL, the TNF-alpha conc/live cell [8] was 434.6 pg/10^5 and 353.0 pg/10^5 and 389.2 pg/10^5 and the “TNF-alpha Concentration” value [9] was 2746.8 pg/mL. For the same molecule, the TNF-alpha conc/live cell [9] was 416.6 pg/10^5, the “TNF-alpha Concentration” value [10] was 2741.2 pg/mL and 2807.3 pg/mL and 2692.0 pg/mL and the TNF-alpha conc/live cell [10] was 456.9 pg/10^5 and 438.6 pg/10^5 and 354.2 pg/10^5. For the same molecule, the “TNF-alpha Concentration” value [11] was 2443.4 pg/mL, the TNF-alpha conc/live cell [11] was 423.4 pg/10^5 and the “TNF-alpha Concentration” value [12] was 2569.3 pg/mL and 2318.5 pg/mL and 2442.3 pg/mL. The TNF-alpha conc/live cell [12] was 407.8 pg/10^5 and 374.0 pg/10^5 and 488.5 pg/10^5, the “TNF-alpha Concentration” value [13] was 28.1 pg/mL and the TNF-alpha conc/live cell [13] was 5.6 pg/10^5. The “TNF-alpha Concentration” value [14] was 26.8 pg/mL and 29.4 pg/mL, the TNF-alpha conc/live cell [14] was 5.1 pg/10^5 and 6.1 pg/10^5 and the “TNF-alpha Concentration” value [15] was 29.4 pg/mL. For the same molecule, the TNF-alpha conc/live cell [15] was 5.8 pg/10^5, the “TNF-alpha Concentration” value [16] was 26.8 pg/mL and 32.0 pg/mL and the TNF-alpha conc/live cell [16] was 6.1 pg/10^5 and 5.5 pg/10^5. For the same molecule, the “TNF-alpha Concentration” value [17] was 33.3 pg/mL, the TNF-alpha conc/live cell [17] was 6.1 pg/10^5 and the “TNF-alpha Concentration” value [18] was 32.0 pg/mL and 34.6 pg/mL. The TNF-alpha conc/live cell [18] was 5.8 pg/10^5 and 6.3 pg/10^5, the “TNF-alpha Concentration” value [19] was 61.4 pg/mL and the TNF-alpha conc/live cell [19] was 9.7 pg/10^5. The “TNF-alpha Concentration” value [20] was 90.9 pg/mL and 32.0 pg/mL, the TNF-alpha conc/live cell [20] was 14.2 pg/10^5 and 5.2 pg/10^5 and the “TNF-alpha Concentration” value [21] was 72.7 pg/mL. The TNF-alpha conc/live cell [21] was 11.0 pg/10^5, the “TNF-alpha Concentration” value [22] was 95.0 pg/mL and 50.5 pg/mL and the TNF-alpha conc/live cell [22] was 14.8 pg/10^5 and 7.2 pg/10^5.
